Results on two compounds are retold here after US5789417A, “Tricyclic compounds with pharmaceutical activity” (Zeneca Limited, priority 1992, dated 1998).

Series [1] concerns human breast, ovarian and liver cancer. The settings on record: clinical, in words; cited from earlier work.
For series [2] the following is noted: Cancer Treatment Reports, 1986, 70, 1335; in words; cited from earlier work.
For a further series, the target named is T1, thymidylate synthase (Mus musculus, UniProt P07607).
T1 construct: Thymidylate synthase was obtained in partially purified form from L1210 mouse leukaemia cells; endogenous in cells; host or cells: L1210 mouse leukaemia cells (enzyme partially purified)
T1 sequence (P07607 whole entry): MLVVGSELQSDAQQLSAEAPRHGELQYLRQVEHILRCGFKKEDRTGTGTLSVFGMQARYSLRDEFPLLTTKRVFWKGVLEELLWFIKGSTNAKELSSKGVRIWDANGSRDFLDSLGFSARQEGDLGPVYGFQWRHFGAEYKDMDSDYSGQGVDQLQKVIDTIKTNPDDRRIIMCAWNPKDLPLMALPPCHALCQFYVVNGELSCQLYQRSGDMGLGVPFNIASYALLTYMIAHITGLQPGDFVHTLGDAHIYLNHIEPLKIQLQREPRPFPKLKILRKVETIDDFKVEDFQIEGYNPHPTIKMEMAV
Briefly: Test (a): in vitro inhibition of thymidylate synthase. It is filed as biochemical. As to conditions: partially purified thymidylate synthase from L1210 mouse leukaemia cells. The text has this: (a) An in vitro assay which determines the ability of a test compound to inhibit the enzyme thymidylate synthase. Thymidylate synthase was obtained in partially purified form from L1210 mouse leukaemia cells and utilised using the procedures described by Jackman et al. (Cancer Res., 1986, 46, 2810 and Sikora et al., Biochem. Pharmacol. 1988, 37 4047);

Series [3] has as its system leukaemia cell line L1210. The series is described as follows: Test (b): inhibition of growth of leukaemia cell line L1210 in cell culture. It is filed as cell-based. The settings on record: Mus musculus. The text has this:
(b) An assay which determines the ability of a test compound to inhibit the growth of the leukaemia cell line L1210 in cell culture. The test is similar to that described in UK Patent Specification No. 2065653B and has been described by Jones et al., J. Med. Chem., 1985, 28, 1468;

Series [4] relates to human breast cancer cell line MCF-7. The series is described as follows: Test (c): inhibition of growth of human breast cancer cell line MCF-7 in cell culture. It is filed as cell-based. As to conditions: MCF7, MCF-7 cell growth. The text has this:
(c) An assay which determines the ability of a test compound to inhibit the growth of the human breast cancer cell line MCF-7 in cell culture. The test is similar to that described by Lippman et al. (Cancer Res., 1976, 36, 4595) and […]

The subject of series [5] is lymphoma cell line L5178Y TK-/-. The series is described as follows: Test (d): cytotoxicity to lymphoma cell line L5178Y TK-/- in vitro. As to conditions: Mus musculus. It is filed as cell-based. The text has this: (d) An assay which determines the ability of a test compound to be cytotoxic to the lymphoma cell line L5178Y TK-/- in vitro. The lymphoma cell line L5178Y TK-/- is deficient in the enzyme thymidine kinase with phosphorylates thymidine and thus operates to generate a pool of thymidylate when de novo synthesis of thymidylate is prevented by the presence of an effective amount of an inhibitor of thymidylate synthase. The L5178Y TK-/- cell line is thereby more sensitive to the presence of an inhibitor of thymidylate synthase. [L5178Y TK-/- was obtained by mutation of the parent L5178Y cell line which is described by, for example, Fischer et al., Methods in Medical Research, 1964, 10, 247].

SMILES strings stand for the structures.

For the compound `C#CCN(Cc1ccc2nc(N)[nH]c(=O)c2c1)c1ccc(C(=O)N[C@@H](CCC(=O)O)C(=O)O)cc1` [CB3717], in series [1], the “activity against human breast, ovarian and liver cancer” value was “promising activity against human breast, ovarian and liver cancer”. For the same compound, the toxicity in humans result in series [2] is “shows symptoms of toxicity in humans, particularly in relation to the liver and kidney”.
In the case of `C#CCN(c1ccc(C(=O)N[C@@H](CCC(=O)O)C(=O)O)cc1)C1CCc2cc3nc(C)[nH]c(=O)c3cc21` (mixture of isomers) [Example 1, N-{p-[N-((6RS)-2-methyl-4-oxo-3,4,7,8-tetrahydro-6H-cyclopenta[g]quinazolin-6-yl)-N-(prop-2-ynyl)amino]benzoyl}-L-glutamic acid], the concentration for half-maximal inhibition (IC50) worked out at 7 nM against thymidylate synthase, 280 nM in series [3], 20 nM in series [4] and 720 nM in series [5].

One may read the IC50 as the concentration at which inhibition is half-maximal.
